Earlier results on one molecule are cited in patent US20050176650A1, “Stable parenteral formulation of levomepromazine and a method for stabilizing said formulation” (Xanodyne Pharmacal, Inc., priority 2004, published 2005).

For data set [1] the following is noted: prior art description.
In another data set the test system is traumatic shock. Particulars: rats; prior art description.
The conditions of data set [2]: rats; prior art description.

Molecules are shown by their SMILES.

In the case of `COc1ccc2c(c1)N(C[C@H](C)CN(C)C)c1ccccc1S2` [Levomepromazine, (−)-(2R)-3-(2-methoxy-10H-phenothiazin-10-yl)-N,N,2-trimethylpropan-1-amine], the “hypothermic action, potency relative to chlorpromazine” value in data set [1] is listed as “three times more potent than that of chlorpromazine”. For the same molecule, in the data set with traumatic shock, the “protection against traumatic shock” value is given as “readily protect against traumatic shock”. Also, the “local anesthesia following parasciatic injections” value in data set [2] is “produce deep local anesthesia”.
